Assay [1] has as its system LC-2/ad (CCDCl6-RET) cells. Description: Cell proliferation assay (MTS), LC-2/ad cells. The conditions noted are these: Homo sapiens, LC-2-ad, 72 h, LC-2/ad cells (CCDCl6-RET), 72 h incubation, MTS readout. The assay is classed as cell-based. As for the experimental part: (§1) MTS testing kit was purchased from Promega. The RPMI-1640, F12, F12K, Fetal bovine serum and Penicillin-Streptomycin were purchased from BI. Glutamine and Dimethyl sulfoxide (DMSO) were purchased from Sigma. TT cells were cultured in F12K supplemented with 10% FBS and LC-2/ad cells were cultured in HamF12: RPMI1640 (1:1) supplemented with 10% FBS and 2 mM Glutamine.
(§2) To investigate whether a compound is able to inhibit the activity of RET fusion and/or mutation in cells, a mechanism-based assay using TT (RET C634W) and LC-2/ad (CCDCl6-RET) cell lines was developed. In this assay, the inhibition of RET fusion and/or mutation was reflected by the inhibition of cell proliferation of TT and LC-2/ad cells. Cells were plated into 96-well plates at the optimized cell density (TT: 5000 cells/well; LC-2/ad: 5000 cells/well). Plates were incubated at 37° C., with 5% CO2 for 24 h. Compounds were serially diluted and added to the plates with the final concentrations as 10000, 3333.3, 1111.1, […], 123.5, 41.2, 13.7, 4.6 and 1.5 nM. Plates were incubated at 37° C., with 5% CO2 for 72 h. An aliquot of 20 μL MTS/100 μL medium mixture solution were added to each well and the plates were incubated for exactly 2 h. The reaction was stopped by adding 25 μL 10% SDS to each well. The absorbance was measured by a microplate reader at 490 nm and 650 nm (reference wavelength). IC50 was calculated using GraphPad Prism 5.0.

For assay [2], the system named is TT (RET C634W) cells. Description: Cell proliferation assay (MTS), TT cells. The conditions noted are these: Homo sapiens, TT, 72 h, 72 h incubation, MTS readout. Format: cell-based. The protocol:
as §1, §2

This passage reports IC50 results from patent US20220041588A1, “SUBSTITUTED IMIDAZO[1,2-A]PYRIDINE AND [1,2,4]TRIAZOLO[1,5-A]PYRIDINE COMPOUNDS AS RET KINASE INHIBITORS” (FOCHON PHARMACEUTICALS, LTD., priority 2018, published 2022).

In the case of `COc1ccc(C(=O)N2CCN(c3ccc(-c4cc(-c5cnn(C)c5)cc5ncc(C#N)n45)cn3)CC2)cn1` [Example 2, 5-(6-(4-(6-Methoxynicotinoyl)piperazin-1-yl)pyridin-3-yl)-7-(1-methyl-1H-pyrazol-4-yl)imidazo[1,2-a]pyridine-3-carbonitrile], the 50% inhibitory concentration (IC50) in assay [1] was found to be 0.054 µM; in assay [2] it was 0.063 µM.

As to `Cc1cccc(CN2CCN(c3ccc(-c4cc(-c5cnn(C)c5)cc5ncc(C#N)n45)cn3)CC2)n1` [Example 5, 7-(1-methyl-1H-pyrazol-4-yl)-5-(6-(4-((6-methylpyridin-2-yl)methyl)pi-perazin-1-yl)pyridin-3-yl)imidazo[1,2-a]pyridine-3-carbonitrile], the values for the IC50 in assay [1] and in assay [2] were 0.08 µM and 0.071 µM, respectively.

`COc1ccc(CN2CCN(c3ccc(-c4cc(-c5cnn(C)c5)cc5ncc(C#N)n45)cn3)CC2)cn1` [Example 6, 5-(6-(4-((6-methoxypyridin-3-yl)meth-yl)piperazin-1-yl)pyridin-3-yl)-7-(1-methyl-1H-pyrazol-4-yl)imidazo[1,2-a]pyridine-3-carbonitrile]: the IC50 in assay [1] is 0.044 µM; in assay [2], 0.042 µM.

For `Cn1cc(-c2cc(-c3ccc(N4CCN(C(=O)[C@H](O)c5ccccc5)CC4)nc3)n3c(C#N)cnc3c2)cn1` [Example 7, (R)-5-(6-(4-(2-hydroxy-2-phenylace-tyl)piperazin-1-yl)pyridin-3-yl)-7-(1-methyl-1H-pyrazol-4-yl)imidazo[1,2-a]pyridine-3-carbonitrile], the IC50 in assay [1] is 0.016 µM; in assay [2] it was 0.011 µM.

Consider `CO[C@@H](C(=O)N1CCN(c2ccc(-c3cc(-c4cnn(C)c4)cc4ncc(C#N)n34)cn2)CC1)c1ccccc1` [Example 14, (R)-5-(6-(4-(2-methoxy-2-phenylace-tyl)piperazin-1-yl)pyridin-3-yl)-7-(1-methyl-1H-pyrazol-4-yl)imidazo[1,2-a]pyridine-3-carbonitrile], for which the half-inhibitory concentration (IC50) in assay [1] came out at 0.013 µM; in assay [2], 0.006 µM.

With `CC(C)[C@@H](O)C(=O)N1CCN(c2ccc(-c3cc(-c4cnn(C)c4)cc4ncc(C#N)n34)cn2)CC1` [Example 17, (R)-5-(6-(4-(2-hydroxy-3-methylbuta-noyl)piperazin-1-yl)pyridin-3-yl)-7-(1-methyl-1H-pyrazol-4-yl)imidazo [1,2-a]pyridine-3-carbonitrile], the 50% inhibitory concentration (IC50) is 0.045 µM in assay [1] and 0.048 µM in assay [2].

On to `N#Cc1cnc2cc(OCC3(O)CC3)cc(-c3ccc(N4CCC(Oc5ccc(C6CC6)nc5)CC4)nc3)n12` [Example 76, 5-(6-(4-((6-cyclopropylpyridin-3-yl)oxy)piperidin-1-yl)pyridin-3-yl)-7-((1-hydroxy-cyclopropyl)methoxy)imidazo[1,2-a]pyr-idine-3-carbonitrile], for which, in assay [2], half-maximal inhibition (IC50) required 0.005 µM.

In assay [2], `CC(C)(O)COc1cc(-c2ccc(N3CCC(Oc4ccc(C(F)F)nc4)CC3)nc2)n2c(C#N)cnc2c1` [Example 77, 5-(6-(4-((6-(difluoromethyl)pyridin-3-yl)oxy)piperidin-1-yl)pyridin-3-yl)-7-(2-hy-droxy-2-methylpropoxy)imidazo[1,2-a]pyr-idine-3-carbonitrile] came in with a half-maximal inhibitory concentration (IC50) of 0.048 µM.

As to `N#Cc1cnc2cc(OCC3(O)CC3)cc(-c3ccc(N4CCC(Oc5ccc(C(F)F)nc5)CC4)nc3)n12` [Example 78, 5-(6-(4-((6-(difluoromethyl)pyridin-3-yl)oxy)piperidin-1-yl)pyridin-3-yl)-7-((1-hy-droxycyclopropyl)methoxy)imidazo[1,2-a]pyridine-3-carbonitrile], the IC50 in assay [2] turned out to be 0.013 µM.

Take `CCOc1ccc(OC2CCN(c3ccc(-c4cc(OCC5(O)CC5)cc5ncc(C#N)n45)cn3)CC2)cn1` [Example 79, 5-(6-(4-((6-ethoxypyridin-3-yl)oxy)piperi-din-1-yl)pyridin-3-yl)-7-((1-hydroxycyclo-propyl)methoxy)imidazo[1,2-a]pyridine-3-carbonitrile]: in assay [2], the half-maximal inhibitory concentration (IC50) turned out to be 0.001 µM.

On to `C#Cc1ccc(OC2CCN(c3ccc(-c4cc(OCC(C)(C)O)cc5ncc(C#N)n45)cn3)CC2)cn1` [Example 80, 5-(6-(4-((6-ethynylpyridin-3-yl)oxy)piper-idin-1-yl)pyridin-3-yl)-7-(2-hydroxy-2-methylpropoxy)imidazo[1,2-a]pyridine-3-carbonitrile], for which the 50% inhibitory concentration (IC50) in assay [2] came to 0.007 µM.

In the case of `C#Cc1ccc(OC2CCN(c3ccc(-c4cc(OCC5(O)CC5)cc5ncc(C#N)n45)cn3)CC2)cn1` [Example 81, 5-(6-(4-((6-ethynylpyridin-3-yl)oxy)piper-idin-1-yl)pyridin-3-yl)-7-((1-hydroxycyclo-propyl)methoxy)imidazo-[1,2-a]pyridine-3-carbonitrile], in assay [2], the half-maximal inhibitory concentration (IC50) was 0.005 µM.

On to `C=Cc1ccc(OC2CCN(c3ccc(-c4cc(OCC(C)(C)O)cc5ncc(C#N)n45)cn3)CC2)cn1` [Example 82, 7-(2-hydroxy-2-methylpropoxy)-5-(6-(4-((6-vinylpyridin-3-yl)oxy)piperidin-1-yl)pyridin-3-yl)imidazo[1,2-a]pyridine-3-car-bonitrile], for which the midpoint of inhibition in assay [2], the IC50, lay at 0.015 µM.

In assay [2], `C=Cc1ccc(OC2CCN(c3ccc(-c4cc(OCC5(O)CC5)cc5ncc(C#N)n45)cn3)CC2)cn1` [Example 83, 7-((1-hydroxycyclopropyl)methoxy)-5-(6-(4-((6-vinylpyridin-3-yl)oxy)piperidin-1-yl)pyridin-3-yl)imidazo[1,2-a]pyridine-3-carbonitrile] yielded a 50% inhibitory concentration (IC50) of 0.017 µM.

In assay [2], `CC(C)(O)COc1cc(-c2ccc(N3CCC(Oc4ccc(OC5CC5)nc4)CC3)nc2)n2c(C#N)cnc2c1` [Example 84, 5-(6-(4-((6-cyclopropoxypyridin-3-yl)oxy)piperidin-1-yl)pyridin-3-yl)-7-(2-hydroxy-2-methylpropoxy)imidazo[1,2-a]pyri-dine-3-carbonitrile] returned an IC50 of 0.021 µM.

`N#Cc1cnc2cc(OCC3(O)CC3)cc(-c3ccc(N4CCC(Oc5ccc(OC6CC6)nc5)CC4)nc3)n12` [Example 85, 5-(6-(4-((6-cyclopropoxypyridin-3-yl)oxy)piperidin-1-yl)pyridin-3-yl)-7-((1-hy-droxycyclopropyl)methoxy)imidazo[1,2-a] pyridine-3-carbonitrile] displayed a half-inhibitory concentration (IC50) in assay [2] of 0.012 µM.

Compound `COc1ncc(OC2CCN(c3ccc(-c4cc(OCC5(O)CC5)cc5ncc(C#N)n45)cn3)CC2)cc1F` [Example 87, 5-(6-(4-((5-fluoro-6-methoxypyridin-3-yl)oxy)piperidin-1-yl)pyridin-3-yl)-7-((1-hydroxycyclopropyl)methoxy)imidazo[1,2-a]pyridine-3-carbonitrile] had a half-maximal inhibitory concentration (IC50) in assay [2] of 0.038 µM.

Take `CCOc1ccc(OC2CCN(c3ccc(-c4cc(OCC(C)(C)O)cc5ncc(C#N)n45)cn3)CC2)cn1` [Example 88, 5-(6-(4-((6-ethoxypyridin-3-yl)oxy)piperi-din-1-yl)pyridin-3-yl)-7-(2-hydroxy-2-meth-ylpropoxy)imidazo[1,2-a]pyridine-3-car-bonitrile]: half-maximal inhibition in assay [2] (IC50) was put at 0.002 µM.

For the compound `COc1ccc(O[C@H]2CCN(c3ccc(-c4cc(OCC(C)(C)O)cc5ncc(C#N)n45)cn3)C2)cn1` [Example 89, (S)-7-(2-hydroxy-2-methylpropoxy)-5-(6-(3-((6-methoxypyridin-3-yl)oxy)pyrrolidin-1-yl)pyridin-3-yl)imidazo[1,2-a]pyridine-3-carbonitrile], half-maximal inhibition in assay [2] (IC50) was put at 0.045 µM.

Consider `COc1ccc(O[C@H]2CCN(c3ccc(-c4cc(OCC5(O)CC5)cc5ncc(C#N)n45)cn3)C2)cn1` [Example 90, (S)-7-((1-hydroxycyclopropyl)methoxy)-5-(6-(3-((6-methoxypyridin-3-yl)oxy)pyr-rolidin-1-yl)pyridin-3-yl)imidazo[1,2-a] pyridine-3-carbonitrile], for which the IC50 in assay [2] stood at 0.013 µM.

`COc1ccc(OC2CN(c3ccc(-c4cc(OCC5(O)CC5)cc5ncc(C#N)n45)cn3)C2)cn1` [Example 92, 7-((1-hydroxycyclopropyl)methoxy)-5-(6-(3-((6-methoxypyridin-3-yl)oxy)azetidin-1-yl)pyridin-3-yl)imidazo[1,2-a]pyridine-3-carbonitrile] registered an IC50 in assay [2] of 0.087 µM.

In turn, `COc1ccc(OC2CN(c3ccc(-c4cc(OCC(C)(C)O)cc5ncc(C#N)n45)cn3)C2)cn1` [Example 93, 7-(2-hydroxy-2-methylpropoxy)-5-(6-(3-((6-methoxypyridin-3-yl)oxy)azetidin-1-yl)pyridin-3-yl)imidazo[1,2-a]pyridine-3-carbonitrile] registered a half-inhibitory concentration (IC50) in assay [2] of 0.039 µM.

As to `COc1ccc(O[C@@H]2CCN(c3ccc(-c4cc(OCC(C)(C)O)cc5ncc(C#N)n45)cn3)C2)cn1` [Example 95, (R)-7-(2-hydroxy-2-methylpropoxy)-5-(6-(3-((6-methoxypyridin-3-yl)oxy)pyrrolidin-1-yl)pyridin-3-yl)imidazo[1,2-a]pyridine-3-carbonitrile], in assay [2], the half-maximal inhibitory concentration (IC50) is 0.007 µM.

Turning to `COc1ccc(O[C@@H]2CCN(c3ccc(-c4cc(OCC5(O)CC5)cc5ncc(C#N)n45)cn3)C2)cn1` [Example 96, (R)-7-((1-hydroxycyclopropyl)methoxy)-5-(6-(3-((6-methoxypyridin-3-yl)oxy)pyr-rolidin-1-yl)pyridin-3-yl)imidazo[1,2-a] pyridine-3-carbonitrile], 0.009 µM corresponded to half-maximal inhibition in assay [2] (IC50).
